How the values were obtained:
UV4 cells = experiment: Growth inhibition of UV4 cells, 18 hours in 96-well plates under aerobic conditions, without or with purified E. coli nitroreductase and NADH; format: cell-based; conditions: for IC50: Cricetulus griseus, UV4, 18 h, 18 hours, aerobic
Method: The compound prepared in Example 1 was activated by the aerobic nitroreductase from E. coli, by being incubated with UV4 cells for 18 hours in 96-well plates under aerobic conditions.

tumour cell cultures = conditions: naturally-occurring enediyne antibiotics, literature; cited from earlier work

O=C(OCc1ccc([N+](=O)[O-])cc1)N1c2ccccc2C23OC24CCCC3C#C/C=C\C#CC14 (racemic) [compound 2, (6R,6aR,10R,10aS,14Z)-(±)-(4-nitrophenyl)methyl 7,8,9,10-tetrahydro-6a,10a-epoxy-6, [3]-hexene[1,5]diynophenanthridine-5(6H)-carboxylate]
IC50 (UV4 cells; compound alone): 18.1 µM | IC50 (UV4 cells; together with purified E. coli nitroreductase enzyme (1 μg/mL) and NADH (1 mM, as cofactor)): 0.19 µM | fold activation by the enzyme (UV4 cells; ratio of IC50 without / with E. coli nitroreductase + NADH, 1080 min): 115 fold

O=C(Oc1ccccc1)N1c2ccccc2C23OC24CCCC3C#C/C=C\C#CC14 (stereo not shown) [formula A']
showed any activation by the enzyme (UV4 cells; E. coli nitroreductase, in words: 'neither ... showed any activation'): neither

calicheamicin
IC50 values for inhibition of growth of tumour cell cultures (tumour cell cultures): low pM range

dynemicin
IC50 values for inhibition of growth of tumour cell cultures (tumour cell cultures): low pM range

esperamicin
IC50 values for inhibition of growth of tumour cell cultures (tumour cell cultures): low pM range

From patent US6124310A, “Enediyne compounds” (priority 1995, dated 2000)
